Here are results for seven compounds from ChEMBL document CHEMBL1201862, “PubChem BioAssay data set” (2004).

SMILES strings stand for the structures. Where “and” joins values, the source holds several entries; their conditions need not be identical. Equal values may be shown once.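 Five concentrations, 48 hours, 96-well plates. GI50: concentration for 50% inhibition of growth.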 Calls of active or inactive are those of the source. Cut-off read from the data, not from the text of the source: active = GI50 up to about 1.1 µM and inactive = higher. Bounds are passed on as bounds.

Among the test systems are HCT-15; OVCAR-4; HCC 2998; SN12C; UO-31; EKVX; RXF 393; 786-0; DU-145; T47D; MDA-N; Malme-3M; SK-MEL-5; SK-MEL-2; SK-OV-3; OVCAR-8; UACC-257; PC-3; NCI-H460; SW-620.
Assay in all cases: inhibition of tumour cell growth, NCI panel, 48 h

Take `COc1ccc(N2C(=O)[C@H]3CC(C)c4c([nH]c5ccccc45)[C@H]3C2=O)cc1` (stereo not given in full): the GI50 is 2.72 µM in the test with HCT-15; 5.98 µM (inactive) with OVCAR-4; 3.65 µM (inactive) in the test with HCC 2998; 6.38 µM (inactive) in the test with SN12C; 5.61 µM (inactive) with UO-31; 24 µM (inactive) with EKVX. Besides, the GI50 in the test on RXF 393 was 1.53 µM (inactive); in the test on 786-0, 3.48 µM (inactive); with DU-145, 4.7 µM (inactive); with T47D it was 4.26 µM (inactive); in the test with MDA-N, 0.681 µM (active); with Malme-3M it was 2.11 µM (inactive). The GI50 was 2.31 µM (inactive) in the test with SK-MEL-5; 2.24 µM (inactive) in the test on SK-MEL-2; 2.4 µM (inactive) in the test with SK-OV-3; 5.64 µM (inactive) in the test on OVCAR-8; 4.6 µM (inactive) in the test with UACC-257; 1.66 µM (inactive) in the test with PC-3. Also, the GI50 with NCI-H460 is 3.69 µM (inactive); with SW-620, 2.87 µM (inactive).

Take `CC(=O)OCC1OC(n2c(-c3ccccc3)c(C(C)=O)c(-c3cccc4ccccc34)c(C#N)c2=S)C(OC(C)=O)C(OC(C)=O)C1OC(C)=O` (stereo not given): the GI50 in the test with HCT-15 was greater than 100 µM; with OVCAR-4, 28.7 µM (inactive) and 17.9 µM (inactive); with HCC 2998, > 100 µM (inactive); in the test on SN12C it was > 100 µM (inactive); in the test with UO-31, < 0.01 µM (active); in the test on EKVX it was 83.6 µM (inactive). Further, the GI50 with RXF 393, in the test on 786-0, in the test on DU-145, in the test with T47D, in the test with MDA-N and with Malme-3M was > 100 µM (inactive) each time. The GI50 in the test on SK-MEL-5 is > 100 µM (inactive); in the test on SK-MEL-2, > 100 µM (inactive); in the test with SK-OV-3 it was > 100 µM (inactive); with OVCAR-8 it was > 100 µM (inactive); in the test with UACC-257, > 100 µM (inactive); in the test on PC-3 it was 62.2 µM (inactive). The GI50 in the test on NCI-H460 and in the test on SW-620 was > 100 µM (inactive) throughout.

Consider `Cc1ccc([N+](=O)[O-])c2c(NCCNC(=O)c3cc(C(=O)NCCNc4ccnc5c(C)ccc([N+](=O)[O-])c45)n(C)n3)ccnc12`, for which the GI50 in the test with HCT-15 was greater than 76.9 µM; with OVCAR-4, > 49.1 µM (inactive); in the test with HCC 2998 it was > 100 µM (inactive); with SN12C, > 57.7 µM (inactive); with UO-31 it was > 100 µM (inactive); in the test on EKVX, > 100 µM (inactive). Further, the GI50 was > 100 µM (inactive) with RXF 393; > 56 µM (inactive) with 786-0; > 100 µM (inactive) in the test on DU-145; > 77.8 µM (inactive) in the test on T47D; > 43.7 µM (inactive) in the test on MDA-N; 55.2 µM (inactive) in the test with Malme-3M. Further, the GI50 in the test on SK-MEL-5 was 32.1 µM (inactive); in the test on SK-MEL-2 it was > 100 µM (inactive); with SK-OV-3 it was > 100 µM (inactive); with OVCAR-8, > 72.1 µM (inactive); in the test on UACC-257, > 81.1 µM (inactive); with PC-3 it was > 100 µM (inactive). Further, the values for the GI50 with NCI-H460 and with SW-620 were > 100 µM (inactive) and 32.9 µM (inactive), respectively.

As for `CN(C)c1ncnc2c1ncn2C1C=CC(COS(N)(=O)=O)C1` (stereo not given), the GI50 is greater than 100 µM in the test on HCT-15; > 100 µM (inactive) in the test on OVCAR-4; > 100 µM (inactive) with HCC 2998; > 100 µM (inactive) in the test with SN12C; > 100 µM (inactive) in the test with UO-31; > 100 µM (inactive) in the test with EKVX. In addition, the GI50 with RXF 393 is 66.1 µM (inactive); in the test with 786-0, > 100 µM (inactive); with DU-145, > 100 µM (inactive); with T47D, > 100 µM (inactive); in the test on MDA-N, > 100 µM (inactive); in the test on Malme-3M, > 100 µM (inactive). Further, the GI50 in the test with SK-MEL-5 was > 100 µM (inactive); in the test with SK-MEL-2 it was > 100 µM (inactive); in the test with SK-OV-3, > 100 µM (inactive); in the test on OVCAR-8, 83.6 µM (inactive); in the test on UACC-257 it was > 100 µM (inactive); in the test on PC-3 it was 60.7 µM (inactive). Besides, the GI50 with NCI-H460 and in the test on SW-620 was > 100 µM (inactive) throughout.

Take `O=C1CSC(c2cccc(Oc3ccccc3)c2)N1c1cccc(Cl)c1Cl` (stereo not given): the GI50 with HCT-15 is 19.5 µM; with OVCAR-4, 23.2 µM (inactive); in the test on HCC 2998, 12.3 µM (inactive); with SN12C, 31.5 µM (inactive); with UO-31, 36.9 µM (inactive); with EKVX it was 25.2 µM (inactive). Besides, the GI50 in the test on RXF 393 was 57.1 µM (inactive); in the test on 786-0 it was 27.7 µM (inactive); in the test with DU-145, 45 µM (inactive); with T47D, 35.8 µM (inactive); in the test with MDA-N, 21 µM (inactive); with Malme-3M, 30.4 µM (inactive). The GI50 is 18.4 µM (inactive) with SK-MEL-5; 18.1 µM (inactive) in the test with SK-MEL-2; 65.9 µM (inactive) in the test on SK-OV-3; 19.8 µM (inactive) in the test on OVCAR-8; 24.4 µM (inactive) in the test on UACC-257; 25.7 µM (inactive) in the test on PC-3. The results for the GI50 with NCI-H460 and in the test with SW-620 were 26 µM (inactive) and 29.1 µM (inactive), respectively.

Consider `CN1CC=C(C#CC(C)(C)O)CC1`, for which the GI50 in the test on HCT-15 is greater than 37.5 µM; with OVCAR-4, > 37.5 µM (inactive); with HCC 2998, > 37.5 µM (inactive); in the test with SN12C, > 37.5 µM (inactive); in the test on UO-31, > 37.5 µM (inactive); in the test with EKVX, > 37.5 µM (inactive). In addition, the GI50 was > 37.5 µM (inactive) in the test with RXF 393; > 37.5 µM (inactive) in the test on 786-0; > 37.5 µM (inactive) in the test with DU-145; > 37.5 µM (inactive) in the test on T47D; > 37.5 µM (inactive) in the test with MDA-N; 30.8 µM (inactive) with Malme-3M. The GI50 in the test with SK-MEL-5, in the test on SK-MEL-2, in the test with SK-OV-3, in the test with OVCAR-8, in the test on UACC-257 and with PC-3 was > 37.5 µM (inactive) in each case. Also, the GI50 in the test with NCI-H460 and with SW-620 was > 37.5 µM (inactive) throughout.

Take `CN(C)CCNC(=O)c1cnn(C)c1[N+](=O)[O-]`: the GI50 is greater than 100 µM in the test with HCT-15; 76.7 µM (inactive) in the test on OVCAR-4; > 100 µM (inactive) with HCC 2998; > 100 µM (inactive) in the test on SN12C; > 100 µM (inactive) with UO-31; > 100 µM (inactive) with EKVX. In addition, the GI50 was 65.6 µM (inactive) in the test with RXF 393; > 100 µM (inactive) in the test on 786-0; > 100 µM (inactive) with DU-145; > 100 µM (inactive) in the test on T47D; 41.6 µM (inactive) in the test with MDA-N; 18.6 µM (inactive) with Malme-3M. The GI50 is 44.5 µM (inactive) with SK-MEL-5; > 100 µM (inactive) in the test with SK-MEL-2; > 100 µM (inactive) in the test on SK-OV-3; > 100 µM (inactive) with OVCAR-8; 53 µM (inactive) with UACC-257; 36.1 µM (inactive) in the test with PC-3. Further, the GI50 was 77.4 µM (inactive) in the test on NCI-H460 and 79.6 µM (inactive) in the test with SW-620.
